pEC50, pIC50: −log10 of the molar value.
Assays:
H1299 = details: cited from earlier work
Mcl-1 = Mcl-1 (Homo sapiens (Human), UniProt Q07820); details: cited from earlier work
RS11846 cell line [1] = assay: Apoptosis, Annexin V and propidium iodide assay; assay type: cell-based, human; details: 1-2 days; read-out: RS11846 EC50 (Annexin V- and propidium iodide assay)
Experimental: The apoptotic activity of the compounds against RS11846 cells was assessed by staining with Annexin V- and propidium iodide (PI). Lymphoma cell line, RS11846, was cultured in RPMI 1640 medium (Mediatech Inc., Herndon, Va. 20171) containing 10% fetal bovine serum (Mediatech Inc., Herndon, Va. 20171) and Penicillin/Streptomycin (Mediatech Inc., Herndon, Va. 20171). […] The percentage of viable cells was determined by FITC-Annexin V- and propidium iodide (PI)-labeling, using an Apoptosis Detection kit (BioVision Inc.), and analyzing stained cells by flow cytometry (FACSort; Bectin-Dickinson, Inc.; Mountain View, Calif.). Cells that were annexin-V-negative and PI-negative were considered viable.

RS11846 cell line [2] = assay: Cell viability, ATP-LITE assay; assay type: cell-based, human; details: 72 hours
Experimental: (§1) The activity of the compounds against human cancer cell lines (PC3ML, H460, H1299, RS11846) were assessed by using the ATP-LITE assay (PerkinElmer). All cells were seeded in either F12 or RPMI1640 medium with 5 mM L-glutamine supplemented with 5% fetal bovine serum (Mediatech Inc.), penicillin and streptomycin (Omega). For maintenance, cells were cultured in 5% FBS. Cells plated into 96 well plates at varying initial densities depending on doubling time. H460 and H1299 plated at 2000 cells/well, A549 and PC3 at 3000 cells/well, and RS118456S at 10,000 cells/well. Compounds were diluted to final concentrations with 0.1% DMSO. Prior to dispensing compounds onto cells, fresh 5% media was placed into wells. Administration of compounds occurred 24 hours after seeding into the fresh media. Cell viability was evaluated using ATP-LITE reagent (PerkinElmer) after 72 hours of treatment. Data were normalized to the DMSO control-treated cells using Prism version 5.01 (Graphpad Software).

H460 cell line = assay: Cell viability, ATP-LITE assay; assay type: cell-based, human; details: 72 hours, ATP-LITE
Experimental: as §1

PC3ML cells = assay: Cell viability, ATP-LITE assay; assay type: cell-based, human; details: 72 hours, ATP-LITE
Experimental: as §1

BCL-2 transgenic mice = assay: Oral efficacy study in BCL-2 transgenic mice (splenomegaly); assay type: in vivo, mouse
Experimental: The transgene was propagated on the Balb/c background.
(§2) Spleens were removed and weighed.
(§3) Spleens were excised from sacrificed mice and cell suspensions treated with a mouse erythrocyte lysing kit (R & D Systems). Total splenocyte count was determined by typan blue dye exclusion assays using hemocytometers. The percentage of B-lymphocytes was determined by fluorescence activated cell sorter (FACS) analysis SACS-CANTO, Bectin-Dickinson Inc., Mountain View, Calif.) following staining cells with Phyco-Erytrin (PE)-conjugated anti-CD19 or -B220 antibodies (Becton Dickinson, San Jose, Calif. 95131).
Representative data are shown by FIGS. 11A and 11B.

[3] = Liver microsomal stability; details: rat liver microsomes, 4 μM, 60 min
Experimental: Pooled rat liver microsomes (BD Biosciences, #452701) were preincubated with test compounds at 37.5° C. for 5 min in the absence of NADPH. The reaction was initiated by addition of NADPH and then incubated under the same conditions. […] One aliquot (100 μL) of the incubation mixture was withdrawn at 0, 15, 30, and 60 min and combined immediately with 200 μL of ACN/MeOH containing an internal standard. After mixing, the sample was centrifuged at approximately 13,000 rpm for 12 min. The supernatant was transferred into an autosampler vial and the amount of test compound was quantified using the Shimadzu LCMS 2010EV mass spectrometer. The change of the AUC (area under the curve) of the parent compound as function of time was used as a measure of microsomal stability.

Plasma stability = assay type: in vitro ADME, rat; details: rat plasma, 1 h, 37.5° C.
Experimental: A 20 μL aliquot of a 10 mM solution in DMSO of the test compound was added to […] of heparinized rat plasma (Lampire, P1-150N) to obtain a 100 μM final solution. The mixture was incubated for 1 h at 37.5° C. Aliquots of 100 μL were taken (0, 30 min, 1 h) and diluted with 200 μL of MeOH containing internal standard.

Balb/c mice = assay: Oral toxicity study in normal Balb/c mice; assay type: in vivo, mouse
Experimental: Compounds or vehicle control were dosed 15 times over 3 weeks, giving compounds daily for 5 consecutive days (Monday-Friday), resting on weekends.
Both compounds were provided by NCI-DTP (RAID-program). Compounds were dissolved in 100% sesame oil just before oral administration. Vehicle-control consisted of corresponding concentration of ascorbic acid suspended in 100% sesame oil.
as §2
Whole blood (250 μl) was collected in EDTA-coated glass tubes (purple top; MICROTAINER Brand Tube with EDTA, Catalogue #365973, Becton, Dickinson and Company, New Jersey 07417-1885) via either cardiac puncture or severing the brachial artery of anesthetized mice. After thorough mixing, specimens were analyzed using a VetScan HM2 (Abaxis Inc., Union City, Calif. 94587) hematology analyzer, measuring white blood cell count (WBC), red blood cell count (RBC), platelet (PLT) count, leukocyte differential (including % lymphocyte, % monocyte and % granulocyte), hematocrit (Ht), and hemoglobin (Hb).
(Eppendorf Centrifuge 5415C) for 2 minutes to separate serum from cells and fibrin clot. The resulting serum specimens were analyzed using an automated blood chemistry analyzer (“COBAS MIRA Classic”; Roche, Indianapolis, Ind. 46250-0414) to measure alanine aminotransferase (ALT) and aspartate aminotransferase AST), blood urea nitrogen (BUN), and […].
Stomach and intestines were examined also imaged by ultrasound for evidence of dilation, an indication of GI toxicity. Briefly, mice were anesthetized using a mixture of isofluorane (5%) and oxygen gas (95%), restrained on a heated table using Aquagel Lubrication Gel (Parker Laboratories, Inc., Fairfield, N.J. 07004), and abdominal hair was removed with a chemical depilation agent (Nair™ Hair Removal, Church & Dwight Co., Inc., Princeton, N.J. 08543). Aquasonic 100 Ultrasound Transmission Gel (Parker Laboratories, Inc., Fairfield, N.J. 07004) was applied to the abdomen prior to imaging using a high-frequency probe to assess gas and intestinal distention.
Immediately after ultrasound imaging, electrocardiogram (ECG) analysis of anesthetized mice was performed using a MP150 Biopack System.

GST-BCL-2 = GST-BCL-2 (Homo sapiens (Human), UniProt P10415); assay: Fluorescence polarization assay (FITC-Bim BH3 peptide); assay type: binding; details: read-out: EC50 FPA BCL-2
GST-BCL-2, sequence (P10415 whole entry): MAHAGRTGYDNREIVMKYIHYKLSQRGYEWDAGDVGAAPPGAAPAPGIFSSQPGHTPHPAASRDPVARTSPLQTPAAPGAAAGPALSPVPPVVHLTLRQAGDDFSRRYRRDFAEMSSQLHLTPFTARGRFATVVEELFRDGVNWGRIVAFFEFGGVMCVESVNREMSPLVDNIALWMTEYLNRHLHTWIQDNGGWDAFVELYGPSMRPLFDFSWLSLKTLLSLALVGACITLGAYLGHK
Experimental: After 30 min incubation at room temperature, the polarization values in millipolarization units were measured at excitation/emission wavelengths of 480/535 nm with a multilabel plate reader (PerkinElmer). IC50 was determined by fitting the experimental data to a sigmoidal dose-response nonlinear regression model (SigmaPlot 10.0.1, Systat Software, Inc., San Jose, Calif., USA). Data reported are mean of three independent experiments ±standard error (SE). Performance of BCL-2 and Mcl-1 FPA are similar. […] Fluorescence polarization was measured after 10 min.

[4] = PAMPA (parallel artificial membrane permeation assay); details: PAMPA, pH 7.2, 8 h
Experimental: PAMPA is parallel artificial membrane permeation assay. A 96-well microtiter plate (Millipore, # MSSACCEPTOR) was completely filled with aqueous buffer solution (pH 7.2) and covered with a microtiter filterplate (Millipore, # MAPBMN310). The hydrophobic filter material was impregnated with a 10% solution of hexadecane in hexane and the organic solvent was allowed to completely evaporate. Permeation studies were started by the transfer of 200 μL of a 100 μM test compound solution on top of the filterplate. In general phosphate buffer at pH 7.2 buffer was used. The maximum DMSO content of the stock solutions was <5%. In parallel, an equilibrium solution lacking a membrane was prepared using the exact concentrations and specifications but lacking the membrane. The concentrations of the acceptor and equilibrium solutions were determined using the Shimadzu LCMS-2010EV and AUC methods. The permeation of a compound through the membrane layer is described by the percentage permeation (% flux). The flux values were calculated considering the concentration of the acceptor compartment after 8 h and that of a reference well with the same concentration containing no membrane barrier.

[5] = tested on: murine B-cells from BCL-2 transgenic mice; assay: Viability of cultured splenocytes, Annexin V-FITC/PI; assay type: cell-based; details: 18 hours; read-out: IC50, induction of apoptosis in cultured B-cells of BCL-2 transgenic mouse
Experimental: as §3
After 18 hours of incubation, % viability of splenocytes was determined by FACSort after staining cells by the use of an Annexin V-FITC/PI Apoptosis Detection kit (BioVision Inc.). Viable cells were defined by Annexin V-negative, PI-negative cells.

DOHH2 cell line = assay: Apoptosis induction in NHL B-cell lines, Annexin V-FITC/PI; assay type: cell-based; details: 48 hours; read-out: IC50, % viability DOHH2
Experimental: (§4) After 48 hours of incubation, % viability was determined by FACSort after staining cells by the use of an Annexin V-FITC/PI Apoptosis Detection kit (BioVision Inc.). Viable cells were defined by Annexin V-negative, PI-negative cells.

RS11846 cell line [6] = assay: as above; assay type: cell-based; details: 48 hours; read-out: IC50, % viability RS11846
Experimental: as §4

380 cell line = assay: as above; assay type: cell-based; details: 48 hours, relative to DOHH2 and RS11846
Experimental: as §4

ZR75-1 cells = assay: XTT dye reduction assay; assay type: cell-based, human; details: three days
Experimental: (§5) The effects of the compounds on viability of tumor cells in culture were monitored by using XTT assays with MCF7 and ZR75-1 cell lines. MCF7 cells were grown in DMEM containing 10% fetal bovine serum, penicillin/streptomycin, supplemented with 10^−10 M insulin, 1 mM sodium pyruvate and glutamine. ZR75-1 cells were grown in RPMI containing 10% fetal bovine serum, penicillin/streptomycin, supplemented with HEPES buffer, 1 mM sodium pyruvate and glutamine. Cells were regularly tested for mycoplasma contamination. Cells were seeded triplicates at an initial cell density of 1,000 cells per well. Blank wells received no cells.
(§6) Relative numbers of viable cells was determined by XTT assay. Briefly, in a 96-well plate, we added 50 μl of a mixture of 1 mg/ml of XTT (2,3-bis(2-methoxy-4-nitro-5-sulfophenyl)-5-[(phenylamino)carbonyl]-2H-tetrazolium hydroxide) (Polysciences, Washington, Pa.) containing 0.025 mM PMS (phenazine methosulfate) to each well. The 96-well plates were reincubated for an additional 4 hours to allow for XTT formazan production. Then, the contents of each plate were mixed and optical densities were determined at a wavelength of 450 nm (OD450). Net OD450 was determined after subtracting OD450 of blank wells. Low-passage HeLa cells (between passage number 10 and 20) were transfected with pcDNA3-BCL-XL or control pcDNA3 plasmids using Lipofectamine Plus reagent (Invitrogen) and selected in medium containing 800 μg/ml of G418. Immunoblot analysis of BCL-XL was accomplished as previously described.

MCF7 cells = assay: XTT dye reduction assay; assay type: cell-based, human; details: three days
Experimental: as §5, §6

BCL-XL = BCL-XL (Homo sapiens (Human), UniProt Q07817); assay: Fluorescence polarization assay with fluorescein-labeled Bad peptide; assay type: binding; details: Table 5
BCL-XL, sequence (Q07817 whole entry): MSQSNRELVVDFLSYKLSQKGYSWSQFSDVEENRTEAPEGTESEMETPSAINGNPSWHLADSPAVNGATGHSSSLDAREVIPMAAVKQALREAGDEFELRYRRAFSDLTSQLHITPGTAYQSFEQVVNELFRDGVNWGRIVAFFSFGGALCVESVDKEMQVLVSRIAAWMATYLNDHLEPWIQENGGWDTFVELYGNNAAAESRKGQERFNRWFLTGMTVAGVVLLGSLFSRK
Experimental: FP A assays were conducted with a fluorescein-labeled Bad peptide (NL […] Corporation, Dublin, Calif.) using a LJL Analyst HT Molecular Devices Co., Sunnyvale, Calif.). […] The tubes were incubated for 5 minutes at room temperature and 20 μl each of reaction mixture was transferred to 96-well black PS, HE Microplate (LJL Biosystems Co). All assays were performed in quadruplicate, with blank wells receiving no Gossypol. […] Controls included dose-responses measurements in absence of the proteins, to assess any interactions between the compounds and the FITC-BH3 peptide. Eventual effects were taken into account by subtraction.

Mcl-1, sequence (Q07820 whole entry): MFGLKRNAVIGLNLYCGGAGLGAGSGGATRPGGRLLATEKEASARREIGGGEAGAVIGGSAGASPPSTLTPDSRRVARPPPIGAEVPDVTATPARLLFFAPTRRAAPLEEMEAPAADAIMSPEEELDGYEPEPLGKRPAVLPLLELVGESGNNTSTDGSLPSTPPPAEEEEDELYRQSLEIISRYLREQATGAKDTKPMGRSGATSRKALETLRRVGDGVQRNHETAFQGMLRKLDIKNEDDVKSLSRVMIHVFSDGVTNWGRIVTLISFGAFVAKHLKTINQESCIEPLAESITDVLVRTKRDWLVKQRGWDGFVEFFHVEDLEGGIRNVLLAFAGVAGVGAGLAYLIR

For CN(C)CC[C@H](CSc1ccccc1)Nc1ccc(S(=O)(=O)NC(=O)c2ccc(N3CCN(Cc4ccccc4-c4ccc(Cl)cc4)CC3)cc2)cc1[N+](=O)[O-] [ABT-737], the “killing of Mcl-1 overexpressing cell lines such as H1299” value (H1299) is given as “not effective in killing” and the “effectiveness against Mcl-1” value (Mcl-1) is given as “not effective”.
Cc1cc2c(C(C)C)c(O)c(O)cc2c(O)c1-c1c(C)cc2c(C(C)C)c(O)c(O)cc2c1O [Apogossypol, apogossypol] showed a pEC50 (RS11846 cell line [1]) of 5.07, a pEC50 (RS11846 cell line [2]) of 5.30 and a pEC50 (H460 cell line) of 5.55. For the same compound, the pEC50 (H460 cell line; listed as apogossypol) was 5.47, the pEC50 (PC3ML cells) was 4.99 and the “tolerability, low dose” value (BCL-2 transgenic mice; 0.06 mmol/kg oral, QDX5 for 3 weeks) was “well tolerated”. For the same compound, the “shrinkage of spleen, low dose” value (BCL-2 transgenic mice; 0.06 mmol/kg oral, QDX5 for 3 weeks, wet weight and B-cell count) was “induced shrinkage of spleen to a significant extent”, the “spleen size, high dose” value (BCL-2 transgenic mice; […] daily oral) was “reduced roughly by half” and the “tolerability, high dose” value (BCL-2 transgenic mice; […] oral, QDX5 for 3 weeks) was “well tolerated”. For the same compound, the “Microsomal Stability (T = 1 hr)” value [3] was 60%, the “Plasma Stability (T = 1 hr)” value (Plasma stability) was 53% and the mice found dead (Balb/c mice; […] oral, day 18 of treatment) was “One of 6”. For the same compound, the “general condition of mice” value (Balb/c mice; […] oral, three weeks) was “remained active and apparently healthy”, the “toxicity, preliminary maximum tolerated dose (MTD) studies” value (Balb/c mice; orally or by intraperitoneal injection) was “less toxic than gossypol” and the pEC50 (GST-BCL-2) was 5.55. For the same compound, the “Cell Permeability” value [4] was “Low”, the pIC50 [5] was 5.70 to 6.00 and the pIC50 (DOHH2 cell line) was about 5.52. The pIC50 (RS11846 cell line [6]) was about 5.52 and the “sensitivity of 380 cell line” value (380 cell line) was “slightly more resistant”.
In the case of O=c1c(O)cccc2cc(O)c(O)c(O)c12 [Purpurogallin], the “IC50, cell viability ZR75-1” value (ZR75-1 cells) was “did not show appreciable activity”, the “IC50, cell viability MCF7” value (MCF7 cells) was “did not show appreciable activity” and the pIC50 (BCL-XL) was 5.66.

Source: patent US9115061B2, “Naphthalene-based inhibitors of anti-apoptotic proteins” (BURNHAM INSTITUTE FOR MEDICAL RESEARCH, priority 2007, dated 2015)
